Source: patent publication US10173971B2, “Picolinamides with fungicidal activity” (DOW AGROSCIENCES LLC, priority 2014, dated 2019)
Like-named read-outs stand apart in the source and are kept apart here.

Columns and labels:
Zymoseptoria tritici = assay: Fungicidal activity: leaf blotch of wheat (SEPTTR), wheat seedlings, booth sprayer to run-off or track spray; assay type: in vivo; conditions: for pest or weed control at 100 ppm: High-Volume Cereal Activity at 100 ppm; for pest or weed control at 121.5 g/ha: Low-Volume Cereal Activity at 121.5 g/H
Puccinia triticina = assay: Fungicidal activity: wheat brown rust (PUCCRT), wheat seedlings, booth sprayer to run-off or track spray; assay type: in vivo; conditions: for pest or weed control at 100 ppm: High-Volume Cereal Activity at 100 ppm; for pest or weed control at 121.5 g/ha: Low-Volume Cereal Activity at 121.5 g/H
Phakopsora pachyrhizi = assay: Fungicidal activity: Asian soybean rust (PHAKPA), soybean seedlings; conditions: 25 ppm, soybean plants (variety Williams 82); for Disease Control PHAKPA 1DP: 1 Day Protectant; for Disease Control PHAKPA 3DC: 3 Day Curative
[1] = 24 h, 1 Day Protectant, read-out: SEPTTR 1DP
[2] = 72 h, 3 Day Curative, read-out: SEPTTR 3DC
[3] = 24 h, 1 Day Protectant, read-out: PUCCRT 1DP
[4] = 72 h, 3 Day Curative, read-out: PUCCRT 3DC
[5] = 3DC (Day Curative), read-out: PUCCRT 3DC

| Structure (SMILES) | pest or weed control at 100 ppm (Zymoseptoria tritici; [1]) [%] | pest or weed control at 121.5 g/ha (Zymoseptoria tritici; [1]) [%] | pest or weed control at 121.5 g/ha (Zymoseptoria tritici; [2]) [%] | pest or weed control at 100 ppm (Zymoseptoria tritici; 3DC (Day Curative), read-out: SEPTTR 3DC) [%] | pest or weed control at 100 ppm (Puccinia triticina; [3]) [%] | pest or weed control at 121.5 g/ha (Puccinia triticina; [3]) [%] | pest or weed control at 121.5 g/ha (Puccinia triticina; [4]) [%] | pest or weed control at 100 ppm (Puccinia triticina; [5]) [%] | Disease Control PHAKPA 1DP (Phakopsora pachyrhizi) | Disease Control PHAKPA 3DC (Phakopsora pachyrhizi) |
| --- | --- | --- | --- | --- | --- | --- | --- | --- | --- | --- |
| CCCO[C@H](CC)[C@@H](Cc1ccccc1)[C@H](C)OC(=O)[C@H](C)NC(=O)c1nccc(OC)c1OCOC(C)=O [compound 169] | 80 to 100 | 80 to 100 | 80 to 100 | 80 to 100 | 80 to 100 | 80 to 100 | 80 to 100 | 80 to 100 | A (80-100) | B (More than 0-Less than 80) |
| COc1ccnc(C(=O)N[C@@H](C)C(=O)O[C@@H](C)[C@@H](COCc2ccccc2)Cc2ccccc2)c1OCOC(C)=O [compound 240] |  | 0 to 80 | 80 to 100 |  |  | 80 to 100 | 80 to 100 |  | A (80-100) | B (More than 0-Less than 80) |
| COc1ccnc(C(=O)N[C@@H](C)C(=O)O[C@@H](C)[C@H](Cc2ccccc2)C(C)(C)OCc2ccccc2)c1OCOC(C)=O [compound 242] |  | 80 to 100 | 80 to 100 |  |  | 80 to 100 | 80 to 100 |  | B (More than 0-Less than 80) |  |
| CC[C@H](NC(=O)c1nccc(OC)c1OCOC(C)=O)C(=O)O[C@@H](C)C(Cc1cccc(OC)c1)Cc1cccc(OC)c1 [compound 275] |  | 0 to 80 |  |  |  | 80 to 100 | 0 to 80 |  |  |  |
| COc1ccc(CC(Cc2ccc(OC)cc2)[C@H](C)OC(=O)[C@H](C)NC(=O)c2nccc(OC)c2OCOC(C)=O)cc1 [compound 276] |  | 80 to 100 | 0 to 80 |  |  | 80 to 100 |  |  |  |  |
| CC[C@H](NC(=O)c1nccc(OC)c1OCOC(C)=O)C(=O)O[C@@H](C)C(Cc1ccc(OC)cc1)Cc1ccc(OC)cc1 [compound 277] |  | 80 to 100 |  |  |  | 80 to 100 | 0 to 80 |  |  |  |
| COc1ccc(C[C@@H]([C@H](C)OC(=O)[C@H](C)NC(=O)c2nccc(OC)c2OCOC(C)=O)C(C)(C)OCC2CC2)cc1 [compound 278] |  | 0 to 80 | 0 to 80 |  |  | 80 to 100 | 0 to 80 |  |  |  |
| COc1ccc(C[C@@H]([C@H](C)OC(=O)[C@H](C)NC(=O)c2nccc(OC)c2OCOC(C)=O)C(C)(C)Oc2ccc(F)cc2F)cc1 [compound 279] |  | 0 to 80 | 80 to 100 |  |  | 80 to 100 | 0 to 80 |  |  |  |
| COc1ccc(C[C@H](COCC2CC2)[C@H](C)OC(=O)[C@H](C)NC(=O)c2nccc(OC)c2OCOC(C)=O)cc1 [compound 280] |  | 0 to 80 | 80 to 100 |  |  | 80 to 100 | 80 to 100 |  |  |  |
| COc1ccc(C[C@H](COCC2CC2)[C@H](C)OC(=O)[C@H](C)NC(=O)c2nccc(OC)c2OCOC(C)=O)cc1Cc1ccccc1 [compound 281] |  | 0 to 80 | 80 to 100 |  |  | 80 to 100 | 0 to 80 |  |  |  |
| COc1ccc(C[C@H](COc2ccc(F)cc2F)[C@H](C)OC(=O)[C@H](C)NC(=O)c2nccc(OC)c2OCOC(C)=O)cc1 [compound 282] |  | 0 to 80 | 0 to 80 |  |  | 80 to 100 |  |  |  |  |
| CC[C@@H](c1ccccc1)[C@H](C)OC(=O)[C@H](C)NC(=O)c1nccc(OC)c1OC(C)=O [compound 283] |  | 0 to 80 | 80 to 100 |  |  | 80 to 100 | 80 to 100 |  |  |  |
| CC[C@H](Cc1ccc(C(F)(F)F)cc1)[C@@H](Cc1ccc(F)cc1)[C@H](C)OC(=O)[C@H](C)NC(=O)c1nccc(OC)c1O [compound 284] | 0 to 80 |  |  |  | 80 to 100 |  |  | 80 to 100 |  |  |
